Literature values as cited in article PMC5571359, “Screening the Medicines for Malaria Venture Pathogen Box across Multiple Pathogens Reclassifies Starting Points for Open-Source Drug Discovery” (Antimicrobial Agents and Chemotherapy, 2017).
Like-named read-outs stand apart in the source and are kept apart here.

Test system: HepG2
Conditions: cited from earlier work
[1] = ref PBox supporting information
[2] = ref Pbox supporting information
[3] = read-out: HepG2 PBox CC50 µM, HepG2 cytotoxicity, ref PBox supporting information

## CC(C)C(Oc1cccc2ccccc12)C(=O)O (centres unmarked) [MMV676191]
[1]
  HepG2 PBox CC20: >80 µM

## O=C(c1ccc(F)cc1)N(CCNc1ccccc1)c1ccccc1 [MMV676204]
[2]
  HepG2 PBox CC20 μMc: 18.5 µM

## Brc1c(-c2ccc3c(c2)OCO3)nc2ncccn12 [MMV676377]
[3]
  CC50: > 100 µM

## COc1cccc(OCC(=O)c2ccc(Br)cc2)c1 [MMV676379]
[3]
  CC50: > 100 µM

## Cn1ncc2c(N3CCOCC3)nc(NCCc3c[nH]c4ccccc34)nc21 [MMV676382]
[2]
  HepG2 PBox CC20 μMc: 4.6 µM

## N#Cc1nc(-c2ccccc2F)oc1NCCc1ccccc1 [MMV676384]
[3]
  CC50: > 100 µM

## Cc1cccc(Cn2ccc(NC(=O)c3ccc4c(c3)OCO4)n2)c1 [MMV676386]
[3]
  CC50: > 100 µM

## O=C(c1[nH]nc2c1CCCC2)N1CCN(Cc2ccc3c(c2)OCO3)CC1 [MMV676389]
[3]
  CC50: > 100 µM

## O=C(Nc1cccnc1)c1c(O)c2cccc3c2n(c1=O)CC3 [MMV676395]
[3]
  CC50: > 100 µM

## CCS(=O)(=O)N(Cc1ccco1)Cc1cc2ccc(C)cc2nc1O [MMV676398]
[2]
  HepG2 PBox CC20 μMc: >80 µM

## c1coc(CNc2nc(N3CCCCC3)nc3ccccc23)c1 [MMV676401]
[3]
  CC50: 18.6 µM

## CC(C)n1ncc2c(C(=O)NCC(c3cccs3)N3CCOCC3)cc(-c3ccccc3)nc21 (centres unmarked) [MMV676406]
[3]
  CC50: 58 µM

## N#Cc1nc(-c2ccccc2)oc1S(=O)(=O)c1ccc(Cl)cc1 [MMV676412]
[3]
  CC50: 2.2 µM

## Cc1ccc(NC(=O)CC2COc3ccccc3O2)cc1Cl (centres unmarked) [MMV676431]
[3]
  CC50: 66.7 µM

## Cc1ccc2nc(Cl)c(CNCc3cccs3)cc2c1 [MMV676439]
[3]
  CC50: > 100 µM

## O=C(NC1CCCCC1)N1CCN(Cc2ccc3c(c2)OCO3)CC1 [MMV676444]
[3]
  CC50: > 100 µM

## CCCn1c(CNc2ccccc2O)nc2ccccc21 [MMV676445]
[3]
  CC50: 84.1 µM

## CCc1nc2ccccc2n1CC(O)COc1cc(C)ccc1Cl (centres unmarked) [MMV676449]
[3]
  CC50: 43.2 µM

## CCOC(=O)c1cc(-c2csc(Nc3c(C)cc(C)cc3C)n2)on1 [MMV676461]
[3]
  CC50: 24.4 µM

## CCOc1ccc(OCC(=O)Nc2cc(C)cc(C)c2)cc1 [MMV676470]
[3]
  CC50: > 100 µM

## COc1cccc(OC)c1C(=O)Nc1ccc(Cl)c(-c2nc3ccccc3s2)c1 [MMV676472]
[3]
  CC50: > 100 µM

## Cc1cc(C)cc(COc2ccc3c(C)c(CCC(=O)O)c(=O)oc3c2C)c1 [MMV676476]
[3]
  CC50: > 100 µM

## CCc1c(C)nc(-n2nc(C)cc2NC(=O)c2ccccc2SC)[nH]c1=O [MMV676477]
[3]
  CC50: 1.3 µM

## O=C(C1CCN(c2nnc(-n3cccc3)s2)CC1)N1CCC(Cc2ccccc2)CC1 [MMV676478]
[3]
  CC50: > 100 µM

## COC(=O)c1c(NC(=O)c2cc3ccccc3oc2=O)sc2c1CCN(Cc1ccccc1)C2 [MMV676480]
[2]
  HepG2 PBox CC20 μMc: 12.3 µM

## O=C(Nc1nnc(S)s1)c1cc(Br)ccc1Cl [MMV676492]
HepG2 CC20, ref Pathogen Box supporting information
  HepG2 PBox CC20 μMc: >80 µM

## O=C(Nc1nnc(-c2ccc(Cl)s2)o1)c1ccc(Cl)s1 [MMV676501]
[3]
  CC50: 50.1 µM

## Cc1ccc2oc(-c3cc(NC(=O)Cc4ccccc4)ccc3Cl)nc2c1 [MMV676509]
[3]
  CC50: 83.6 µM

## O=C(c1cc2ccccc2o1)N1CCN(Cc2ccc3c(c2)OCO3)CC1 [MMV676520]
[3]
  CC50: > 100 µM

## Nc1cccnc1Nc1ccc(Cl)cc1 [MMV676524]
[3]
  CC50: 9 µM

## COc1ccc(-c2cc(NC(=O)c3ccc(F)cc3Cl)ccc2OC)cc1 [MMV676526]
[3]
  CC50: > 100 µM

## COCC(C)NC(=O)CSc1ncnc2sc(-c3ccccc3)cc12 (centres unmarked) [MMV676536]
[2]
  HepG2 PBox CC20 μMc: >80 µM

## O=C(NCCc1c[nH]c2ccccc12)c1cc2ccccc2oc1=O [MMV676539]
[3]
  CC50: > 100 µM

## COc1ccc(Nc2ccccc2NC(=O)c2ccc(O)nc2)cc1 [MMV676554]
[3]
  CC50: 42.5 µM

## Cc1nnc(NCc2cccc(Cl)c2)c2ccccc12 [MMV676555]
[3]
  CC50: 76 µM

## CC1=NN(c2nc3ccccc3s2)C(=O)C1Cc1cccc2ccccc12 (centres unmarked) [MMV676558]
[3]
  CC50: 21.9 µM

## COc1ccc(-c2nc(-c3cccc(NC(=O)Cc4ccc(F)cc4)c3)no2)cc1OC [MMV676571]
[3]
  CC50: > 100 µM

## O=C(NC1=NCCS1)c1sc2cc(F)ccc2c1Cl [MMV676584]
[3]
  CC50: > 100 µM

## Nc1c2c(nc3sc4c(c13)CCCC4)CCCC2 [MMV676588]
[3]
  CC50: 34.9 µM

## O=C(CCC1CCCCC1)Nc1cccc(-c2nnc(-c3ccco3)o2)c1 [MMV676589]
[3]
  CC50: > 100 µM

## CCCn1nnc(NC(=O)COc2ccc(C3CCCCC3)cc2)n1 [MMV676597]
[3]
  CC50: > 100 µM

## CC(C)(C)n1nc(Cc2cccc3ccccc23)c2c(N)ncnc21 [MMV676599]
[1]
  HepG2 PBox CC20: 19 µM

## CC1COC2(CCN(c3nc(=O)c4cc(C(F)(F)F)cc([N+](=O)[O-])c4s3)CC2)O1 (centres unmarked) [MMV676603]
[3]
  CC50: > 100 µM

## NC(=O)c1cc(-c2ccsc2)ccc1OCCOc1ccccc1 [MMV687138]
[3]
  CC50: > 100 µM

## CCCCS(=O)(=O)Nc1ccc2cnn(C)c2c1 [MMV687145]
[3]
  CC50: > 100 µM

## Cc1cc(C)c2cc(C(=O)NC3CCCCCCC3)[nH]c2c1 [MMV687146]
[3]
  CC50: > 100 µM

## COc1ccc(Cn2cnc3c(-c4ccco4)nc(Cl)nc32)cc1 [MMV687170]
[3]
  CC50: > 100 µM

## O=C(C1CCN(c2cc(-n3cccc3)ncn2)CC1)N1CCc2ccccc2C1 [MMV687172]
[3]
  CC50: > 100 µM

## CCc1ccc([C@@H]2C[C@H](C(F)(F)F)n3ncc(C(=O)NCc4ccc(OC)cc4)c3N2)cc1 [MMV687180]
[3]
  CC50: 50.6 µM

## COc1ccc2nc(C)cc(OCC(=O)Nc3ccccc3OC)c2c1 [MMV687188]
[3]
  CC50: 57.4 µM

## COc1ccc2nc(C)cc(OCC(=O)NCc3ccccc3)c2c1 [MMV687189]
[3]
  CC50: > 100 µM

## CC(C)(C(=O)Nc1ccc(F)cc1)n1cc(-c2ccccc2F)cn1 [MMV687239]
[3]
  CC50: > 100 µM

## NC(=O)c1cc(Br)ccc1OCCOc1ccccc1 [MMV687243]
[3]
  CC50: > 100 µM

## CCCCc1ccc(C(=O)Nc2nccc3ccccc23)nc1 [MMV687254]
[3]
  CC50: 73.8 µM

## CCc1nc2ccc(Cl)cn2c1C(=O)NCc1ccc(N2CCC(c3ccc(OC(F)(F)F)cc3)CC2)cc1 [MMV687696]
[3]
  CC50: > 100 µM

## O=C(NCc1cc(Cl)cc(Cl)c1)c1c(C(F)(F)F)nc2ccccn12 [MMV687699]
[3]
  CC50: 38.3 µM

## Nc1ncnc2c1ncn2[C@@H]1O[C@H](COS(=O)(=O)NC(=O)c2ccccc2O)[C@@H](O)[C@H]1O [MMV687700]
[3]
  CC50: > 100 µM

## O=C1O[C@@H](CO)CN1c1cc(F)c(C2=CCN(Cc3ccccc3)CC2)c(F)c1 [MMV687729]
  CC50: 38.8 µM

## CCCCOC(=O)Nc1cc2nc(C3CCCCC3)[nH]c2cc1N1CCCC1 [MMV687730]
[3]
  CC50: 26.8 µM

## Cc1cc(OCC(=O)NCc2ccccc2)c2cc(Br)ccc2n1 [MMV687747]
[3]
  CC50: 31 µM

## CC1(C)OB(O)c2ccc(C3=NOC(c4cc(Cl)c(F)c(Cl)c4)(C(F)(F)F)C3)cc21 (centres unmarked) [MMV687775]
  HepG2 PBox CC20 μMc: 15.4 µM

## O=C1O[C@@H](COc2ccon2)CN1c1cc(F)c(C2=CCN(Cc3ccccc3)CC2)c(F)c1 [MMV687813]
  CC50: 30.4 µM

## CCc1ccc(S(=O)(=O)Nc2cc(CN3CCN(CCC(C)C)CC3)ccc2C)cc1 [MMV688124]
[3]
  CC50: 27.4 µM

## CCCc1ccc(S(=O)(=O)Nc2ccc(CN3CCN(CC4CC4)CC3)cc2)cc1 [MMV688125]
[3]
  CC50: 17.7 µM

## c1ccc(Oc2ccc(-c3cncc(-c4ccc5[nH]ccc5c4)n3)cc2)cc1 [MMV688178]
[2]
  HepG2 PBox CC20 μMc: 25.7 µM

## CC1(COc2ccc(N3CCC(Oc4ccc(OC(F)(F)F)cc4)CC3)cc2)Cn2cc([N+](=O)[O-])nc2O1 (centres unmarked) [MMV688262]
[3]
  CC50: 72.5 µM

## COc1ccc(-c2cnc3cnc(-c4cccc(OC(C)C)c4)cn23)cc1 [MMV688270]
[2]
  HepG2 PBox CC20 μMc: 24.3 µM

## COc1ccc(-c2nnc3ccc(-c4cccc(C(C)C)c4)cn23)cc1OC [MMV688313]
[2]
  HepG2 PBox CC20 μMc: 7.5 µM
